# Laboratory results reported in ChEMBL document CHEMBL5143599, “Unraveling the Design and Discovery of c-Jun N-Terminal Kinase Inhibitors and Their Therapeutic Potential in Human Diseases” (J Med Chem, 2022).
# Non-standard residues stand in square brackets, D forms with d. Residues, ends and D or L forms follow the SMILES beside them. Ahx = NCCCCCC(=O)O
# How the values were obtained:
# [1] = target: T1, Mitogen-activated protein kinase 8 (Homo sapiens, UniProt P45983); assay: Inhibition of JNK1 (unknown origin)
# T1 sequence (P45983 whole entry): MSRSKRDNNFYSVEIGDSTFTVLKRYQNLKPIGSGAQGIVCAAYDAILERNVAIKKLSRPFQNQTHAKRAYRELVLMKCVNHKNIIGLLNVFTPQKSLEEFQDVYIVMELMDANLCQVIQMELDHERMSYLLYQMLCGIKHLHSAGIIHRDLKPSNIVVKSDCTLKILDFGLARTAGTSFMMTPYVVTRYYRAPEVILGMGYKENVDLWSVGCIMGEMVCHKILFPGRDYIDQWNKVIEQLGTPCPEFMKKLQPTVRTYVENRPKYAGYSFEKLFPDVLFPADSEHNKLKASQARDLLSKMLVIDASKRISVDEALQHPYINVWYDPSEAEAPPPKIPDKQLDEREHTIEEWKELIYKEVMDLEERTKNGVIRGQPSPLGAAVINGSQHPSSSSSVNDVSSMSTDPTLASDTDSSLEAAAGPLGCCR
# [2] = target: T2, Mitogen-activated protein kinase 10 (Homo sapiens, UniProt P53779); assay: Inhibition of JNK3 (unknown origin)
# T2 sequence (P53779 whole entry): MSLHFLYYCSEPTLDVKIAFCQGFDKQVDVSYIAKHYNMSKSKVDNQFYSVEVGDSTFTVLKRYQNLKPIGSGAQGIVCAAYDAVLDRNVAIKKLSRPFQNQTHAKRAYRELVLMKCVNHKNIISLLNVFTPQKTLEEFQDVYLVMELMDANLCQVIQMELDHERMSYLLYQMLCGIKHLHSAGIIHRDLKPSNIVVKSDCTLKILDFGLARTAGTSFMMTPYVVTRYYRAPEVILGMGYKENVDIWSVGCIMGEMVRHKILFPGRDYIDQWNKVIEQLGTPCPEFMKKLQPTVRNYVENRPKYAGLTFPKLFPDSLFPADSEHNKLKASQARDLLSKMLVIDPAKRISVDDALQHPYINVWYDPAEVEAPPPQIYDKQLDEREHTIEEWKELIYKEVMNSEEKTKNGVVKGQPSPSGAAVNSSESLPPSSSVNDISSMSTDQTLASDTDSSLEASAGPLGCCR
# [3] = target: Leucine-rich repeat serine/threonine-protein kinase 2 (Homo sapiens, UniProt Q5S007); assay: Inhibition of LRRK2 (unknown origin)
# Chain of Leucine-rich repeat serine/threonine-protein kinase 2 (Q5S007 whole entry): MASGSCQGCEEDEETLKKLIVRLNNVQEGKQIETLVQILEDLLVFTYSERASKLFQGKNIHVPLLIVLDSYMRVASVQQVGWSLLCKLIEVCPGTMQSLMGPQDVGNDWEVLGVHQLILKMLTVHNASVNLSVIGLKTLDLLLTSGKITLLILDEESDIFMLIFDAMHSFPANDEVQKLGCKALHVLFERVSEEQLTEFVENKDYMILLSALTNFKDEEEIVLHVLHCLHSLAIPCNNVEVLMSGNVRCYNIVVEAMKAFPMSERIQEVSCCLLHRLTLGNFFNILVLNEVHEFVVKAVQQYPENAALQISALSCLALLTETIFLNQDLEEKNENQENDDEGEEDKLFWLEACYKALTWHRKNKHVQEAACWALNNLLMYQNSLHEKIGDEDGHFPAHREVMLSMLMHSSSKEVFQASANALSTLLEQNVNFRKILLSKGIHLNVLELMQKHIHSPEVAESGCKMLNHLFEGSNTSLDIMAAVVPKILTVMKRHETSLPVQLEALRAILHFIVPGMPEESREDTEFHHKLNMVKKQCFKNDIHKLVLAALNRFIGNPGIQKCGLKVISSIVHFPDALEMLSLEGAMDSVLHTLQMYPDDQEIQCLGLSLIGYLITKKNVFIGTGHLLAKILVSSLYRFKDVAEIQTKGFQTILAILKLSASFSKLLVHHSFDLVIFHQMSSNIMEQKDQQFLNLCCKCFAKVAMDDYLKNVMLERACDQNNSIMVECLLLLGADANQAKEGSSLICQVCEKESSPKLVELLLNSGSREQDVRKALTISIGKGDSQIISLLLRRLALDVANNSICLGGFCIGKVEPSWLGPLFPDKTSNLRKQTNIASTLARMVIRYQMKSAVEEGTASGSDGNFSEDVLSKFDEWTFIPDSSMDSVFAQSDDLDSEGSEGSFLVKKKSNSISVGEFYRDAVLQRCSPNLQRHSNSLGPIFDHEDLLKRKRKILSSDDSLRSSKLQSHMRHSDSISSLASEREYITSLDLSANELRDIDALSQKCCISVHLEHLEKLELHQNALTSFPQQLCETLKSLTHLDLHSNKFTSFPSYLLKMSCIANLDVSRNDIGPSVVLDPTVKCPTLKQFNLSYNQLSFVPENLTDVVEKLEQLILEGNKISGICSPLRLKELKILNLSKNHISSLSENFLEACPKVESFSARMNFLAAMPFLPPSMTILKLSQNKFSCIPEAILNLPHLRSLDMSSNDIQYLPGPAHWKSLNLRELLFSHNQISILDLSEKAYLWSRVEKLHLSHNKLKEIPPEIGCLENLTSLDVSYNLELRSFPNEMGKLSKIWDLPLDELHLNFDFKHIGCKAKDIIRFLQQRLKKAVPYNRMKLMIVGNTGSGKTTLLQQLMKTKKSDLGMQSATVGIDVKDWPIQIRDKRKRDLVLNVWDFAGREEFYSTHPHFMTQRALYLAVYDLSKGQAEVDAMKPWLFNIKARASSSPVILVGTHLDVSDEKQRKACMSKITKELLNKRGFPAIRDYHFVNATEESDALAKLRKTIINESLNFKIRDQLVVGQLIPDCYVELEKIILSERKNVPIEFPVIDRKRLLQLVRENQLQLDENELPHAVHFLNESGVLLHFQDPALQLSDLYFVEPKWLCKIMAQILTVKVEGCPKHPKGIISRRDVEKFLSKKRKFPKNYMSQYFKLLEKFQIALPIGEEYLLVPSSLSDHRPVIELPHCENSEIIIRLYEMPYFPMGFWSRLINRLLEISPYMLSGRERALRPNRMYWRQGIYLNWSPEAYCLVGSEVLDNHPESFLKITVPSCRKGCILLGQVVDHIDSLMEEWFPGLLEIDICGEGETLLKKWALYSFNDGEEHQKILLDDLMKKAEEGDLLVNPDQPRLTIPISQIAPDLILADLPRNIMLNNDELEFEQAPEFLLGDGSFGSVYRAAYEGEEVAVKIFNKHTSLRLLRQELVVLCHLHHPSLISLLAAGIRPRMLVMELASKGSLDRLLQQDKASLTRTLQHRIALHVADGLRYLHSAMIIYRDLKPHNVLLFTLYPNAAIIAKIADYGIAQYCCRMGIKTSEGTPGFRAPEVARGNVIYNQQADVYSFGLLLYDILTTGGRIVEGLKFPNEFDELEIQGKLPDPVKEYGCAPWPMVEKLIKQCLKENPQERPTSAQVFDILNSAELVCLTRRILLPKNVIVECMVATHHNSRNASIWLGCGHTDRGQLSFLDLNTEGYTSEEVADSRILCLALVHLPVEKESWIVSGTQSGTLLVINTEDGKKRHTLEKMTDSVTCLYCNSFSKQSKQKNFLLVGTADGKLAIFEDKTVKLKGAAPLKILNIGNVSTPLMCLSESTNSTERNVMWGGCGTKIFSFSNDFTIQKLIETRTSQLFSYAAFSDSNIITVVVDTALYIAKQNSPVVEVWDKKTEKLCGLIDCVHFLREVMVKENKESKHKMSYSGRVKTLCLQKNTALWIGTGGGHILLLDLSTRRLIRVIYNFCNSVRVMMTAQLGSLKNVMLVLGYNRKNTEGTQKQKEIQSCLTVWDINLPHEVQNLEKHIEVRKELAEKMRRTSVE
# [4] = target: Mitogen-activated protein kinase 14 (Homo sapiens, UniProt Q16539); assay: Inhibition of p38alpha (unknown origin)
# Chain of Mitogen-activated protein kinase 14 (Q16539 whole entry): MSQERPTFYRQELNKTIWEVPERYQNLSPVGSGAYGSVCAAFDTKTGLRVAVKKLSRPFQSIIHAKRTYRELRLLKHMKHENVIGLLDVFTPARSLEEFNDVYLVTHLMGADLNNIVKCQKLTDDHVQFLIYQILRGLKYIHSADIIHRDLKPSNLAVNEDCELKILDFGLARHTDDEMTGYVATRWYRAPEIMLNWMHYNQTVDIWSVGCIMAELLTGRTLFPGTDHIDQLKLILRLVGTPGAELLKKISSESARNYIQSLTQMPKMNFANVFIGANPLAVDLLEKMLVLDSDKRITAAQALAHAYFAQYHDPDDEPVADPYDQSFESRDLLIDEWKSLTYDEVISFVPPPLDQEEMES
# [5] = target: T1, Mitogen-activated protein kinase 8; assay: Inhibition of JNK1 (unknown origin) incubated for 1 hr by TR-FRET assay
# [6] = Antitumor activity against UVB-induced skin cancer SKH-1 mouse model assessed as reduction in tumor growth at 4 nmol, top relative to control; assay type: functional, Tumor cell line; parameters: scale not given: the % may be the effect or the level left
# [7] = Inhibition of transformation of H-RAS induced mouse JB6 C1 41 cells at 5 uM; assay type: functional, JB6 Cl 41-5a; parameters: scale not given: the % may be the effect or the level left
# [8] = target: Mitogen-activated protein kinase 8 (Mus musculus, UniProt Q91Y86); assay: Inhibition of JNK1 in mouse JB6 C1 41 cell lysate incubated for 1 hr relative to control; assay type: subcellular, JB6 Cl 41-5a
# Chain of Mitogen-activated protein kinase 8 (Mus musculus, UniProt Q91Y86) (Q91Y86 whole entry): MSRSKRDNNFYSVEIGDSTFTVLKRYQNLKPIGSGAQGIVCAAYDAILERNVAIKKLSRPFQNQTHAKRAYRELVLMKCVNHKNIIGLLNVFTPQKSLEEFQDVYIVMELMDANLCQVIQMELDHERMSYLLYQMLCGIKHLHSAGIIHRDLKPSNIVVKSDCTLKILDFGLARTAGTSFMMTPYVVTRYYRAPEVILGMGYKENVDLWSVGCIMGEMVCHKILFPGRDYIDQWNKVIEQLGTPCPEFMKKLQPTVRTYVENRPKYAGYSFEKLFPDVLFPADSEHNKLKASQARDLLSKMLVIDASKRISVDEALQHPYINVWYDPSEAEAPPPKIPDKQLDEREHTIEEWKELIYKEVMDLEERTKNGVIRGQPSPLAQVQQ
# [9] = Antitumor activity against UVB-induced skin cancer SKH-1 mouse model assessed as reduction in tumor growth at 20 nmol, top relative to control; assay type: functional, Tumor cell line; parameters: scale not given: the % may be the effect or the level left
# [10] = target: T3, c-Jun N-terminal kinase, JNK (Homo sapiens, UniProt P45983+P53779+P45984); assay: Inhibition of c-Jun phosphorylation in human A-375 cells; assay type: cell-based
# [11] = target: T3, c-Jun N-terminal kinase, JNK; assay: Inhibition of c-Jun phosphorylation in human HeLa cells; assay type: cell-based
# [12] = target: T2, Mitogen-activated protein kinase 10; assay: Inhibition of JNK3 (unknown origin) in dark
# [13] = target: T2, Mitogen-activated protein kinase 10; assay: Inhibition of JNK3 (unknown origin) irradiated with 400 nm light
# [14] = target: T1, Mitogen-activated protein kinase 8; assay: Inhibition of JNK1 (unknown origin) using GST-c-jun (1-221) as substrate by scintillation counter analysis
# [15] = target: Mitogen-activated protein kinase 9 (Homo sapiens, UniProt P45984); assay: Inhibition of JNK2 (unknown origin) using GST-c-jun (1-221) as substrate by scintillation counter analysis
# Chain of Mitogen-activated protein kinase 9 (P45984 whole entry): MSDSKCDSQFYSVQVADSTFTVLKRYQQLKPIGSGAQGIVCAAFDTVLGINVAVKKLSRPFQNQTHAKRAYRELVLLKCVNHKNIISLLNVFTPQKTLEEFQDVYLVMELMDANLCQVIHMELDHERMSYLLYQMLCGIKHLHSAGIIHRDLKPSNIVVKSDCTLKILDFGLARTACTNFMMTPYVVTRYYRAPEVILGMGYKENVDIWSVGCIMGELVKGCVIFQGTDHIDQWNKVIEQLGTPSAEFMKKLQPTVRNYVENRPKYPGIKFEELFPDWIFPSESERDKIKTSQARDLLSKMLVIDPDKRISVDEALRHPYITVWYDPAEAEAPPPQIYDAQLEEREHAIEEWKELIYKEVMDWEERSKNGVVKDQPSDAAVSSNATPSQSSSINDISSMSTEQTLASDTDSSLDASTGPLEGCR
# [16] = target: T2, Mitogen-activated protein kinase 10; assay: Inhibition of JNK3 (unknown origin) using GST-c-jun (1-221) as substrate by scintillation counter analysis
# [17] = target: T1, Mitogen-activated protein kinase 8; assay: Inhibition of JNK1 (unknown origin) using biotinylated FL-ATF-2 as substrate incubated for 15 mins by HTRF assay
# [18] = target: T2, Mitogen-activated protein kinase 10; assay: Inhibition of JNK3 (unknown origin) using biotinylated FL-ATF-2 as substrate incubated for 15 mins by HTRF assay
molecule,measurement,setting,value
O=c1c(O)c(-c2cc(O)c(O)c(O)c2)oc2cc(O)c(O)c(O)c12,IC50,[1],3400 nM
O=C(CSc1c(-c2ccccc2)c2cc(Cl)ccc2[nH]c1=O)NC1CCCC1,IC50,[2],58.2 nM
CC(C)CN(CC(=O)NCCCCCCNC(=O)c1ccc(-c2n[nH]c3ccccc23)cc1)C(=O)CNC(=O)C1COc2ccccc2C1 (stereo unspecified),IC50,[2],99 nM
same,IC50,[3],12 nM
O=c1c(O)c(-c2cc(O)c(O)c(CO)c2)oc2cc(O)c(O)c(O)c12,IC50,[1],12200 nM
CSc1nc(C)c(-c2ccnc(Nc3ccc(N4CCOCC4)cc3)c2)[nH]1,IC50,[4],> 10000 nM
same,IC50,[2],184 nM
COCCNc1nnc(Sc2ncc([N+](=O)[O-])s2)s1,IC50,[5],280 nM
C=CC(=O)Nc1cccc(C(=O)Nc2ccc(Nc3cc(-c4c(C)nc(SC)n4C)ccn3)cc2)c1,IC50,[4],1950 nM
same,IC50,[2],2000 nM
O=c1c(O)c(-c2ccc(O)c(O)c2)oc2cc(O)c(O)c(O)c12 [QUERCETAGETIN],Activity,[6],32%
same,Activity,[7],73%
same,IC50,[8],4600 nM
same,Activity,[9],46.7%
CN(C)C/C=C/C(=O)Nc1cccc(C(=O)Nc2ccc(Nc3nccc(-c4c(-c5ccccc5)nn5ccccc45)n3)cc2)c1,EC50,[10],8.6 nM
same,EC50,[11],48 nM
O=[N+]([O-])c1cnc(Sc2nnc(O)n2-c2ccc3c(c2)OCCO3)s1,IC50,[12],507 nM
same,IC50,[13],31.9 nM
CC[C@H](C)[C@H](NC(=O)[C@@H]1CCCN1)C(=O)N[C@@H](CS)C(=O)N[C@@H](CCCNC(=N)N)C(=O)N1CCC[C@H]1C(=O)N[C@H](C(=O)N[C@H](C(=O)N[C@@H](CC(C)C)C(=O)N[C@@H](CC(N)=O)C(=O)N[C@@H](CC(C)C)C(=O)N[C@@H](Cc1ccccc1)C(=O)NCCCCCC(=O)N[C@@H](CCCNC(=N)N)C(=O)N[C@@H](CCCNC(=N)N)C(=O)N[C@@H](C)C(=O)N[C@@H](CCCNC(=N)N)C(=O)N[C@@H](CCCNC(=N)N)C(=O)N[C@@H](C)C(=O)N[C@@H](CCCNC(=N)N)C(=O)N[C@@H](CCCNC(=N)N)C(=O)N[C@@H](CCCNC(=N)N)C(=O)O)[C@@H](C)O)[C@@H](C)O (H-PICRPTTLNLF[Ahx]RRARRARRR-OH),IC50,[14],1100 nM
same,IC50,[15],89 nM
same,IC50,[16],1200 nM
H-PKRPTTLNLFRRRQRRKKRG-OH,IC50,[14],1160 nM
same,IC50,[15],92 nM
same,IC50,[16],1200 nM
Cc1ccc(NC(=O)c2cccc(-n3cc(NC(=O)Nc4ccccc4Cl)cn3)c2)cn1,IC50,[17],1400 nM
same,IC50,[18],55 nM
